This note sets out measurements from patent publication US10968196B2, “Substituted β-lapachones for treating cancer” (University of Pittsburgh—Of the Commonwealth System of …, priority 2015, dated 2021).

Type in all cases: cell-based
One experiment relates to MDA-MB-231 rho0 cells. The experiment in a line: Celltiter-blue cell viability in rho0 cells. The settings on record: MDA-MB-231 rho0 cells (mtDNA depleted), increasing concentrations, 24 h (FIG. 8). The procedure:
MDA-MB-231 parental and rho0 cells (established by long-term culture of parental MDA-MB-231 cells in the presence of 50 ng/ml ethidium bromide) were treated with increasing concentrations of XJB-lapachone for 24 h. Cell viability was determined by Celltiter-blue.

For experiment [1], the system named is A549 cells. In words: Vacuole formation by phase contrast microscopy. To be noted: A549, 6 μM, 20 h, phase contrast microscopy (FIG. 3D). The procedure: (3A) A549 non-small cell lung cancer cells were treated with XJB-OMe, 3-hydroxy-β-lapachone (14), or XJB-lapachone (18) at indicated concentrations for 24 h. Cell viability was determined by a CellTiter-Blue assay. Data represents the mean±SEM. (3B) PEO1 ovarian cancer cells, MDA-MB-231 breast cancer cells, and 983B melanoma cells were treated with XJB-lapachone (18) at indicated concentrations for 24 h. Cell viability was determined by a CellTiter-Blue assay. Data represents the mean±SEM. (3C) Equal numbers of A549 and IMR90 lung fibroblast cells were treated with 10 μM XJB-lapachone (18) for 4 h. XJB-lapachone was then washed away and cells were incubated in drug free media for 3 days. Cell viability was determined by a CellTiter-Blue assay. (3D) A549 cells were treated with XJB-OMe, 3-hydroxy-β-lapachone (14), or XJB-lapachone (18) at 6 μM concentrations for 20 h. The formation of vacuoles was examined by phase contrast microscopy. Representative images are shown. (3E) A549 cells were treated as described above. Apoptotic and necrotic cell death were determined by Annexin V and PI staining. Representative images are shown.
Microscopy: For vacuole imaging, A549 cells were plated in 12-well plate, treated with compounds and the phase contrast images were captured using a Nikon Eclipse TS100 inverted microscope. […]

Experiment [2] relates to A549 cells. The experiment in a line: Oxygen consumption rate, Seahorse extracellular flux analysis. To be noted: A549, 6 μM, 16 h, Seahorse (FIG. 4B). As to the method: (4A) A549 cells were treated with XJB-OMe, 3-hydroxy-β-lapachone (14), or XJB-lapachone (18) at 6 μM for 16 h. The generation of ROS was determined by staining cells with MitoSox and DCFHDA. The fluorescence intensity was measured by flow cytometry. Data represents the mean±S.D. of triplicates. (4B) A549 cells were treated as described in A, and the oxygen consumption rate was determined by a Seahorse extracellular flux analyzer. […] (4C) A549 cells were treated as described in A, and mitochondria morphology was examined by electron microscopy. Representative images are shown. (4D) A549 cells were treated as described above. The expression of the autophagy marker LC3 was examined by western blot. β-actin was used as a loading control. Representative images are shown.
Extracellular flux (XF) analysis: Oxygen consumption rate (OCR) was measured using a Seahorse XF96 Extracellular Flux Analyzer (Seahorse Bioscience, North Billerica, Mass.), as previously described (Qian W, et al., Alterations in bioenergetics due to changes in mitochondrial DNA copy number. Methods 2010 51:452-457). Briefly, A549 cells were plated in a 6-well plate and treated with compounds for 16 h. After treatment, cells were trypsinized, counted, and plated at 40,000 cells per well in a XF96 microplate using Cell-Tak cell adhesive. OCR measurements were then performed using a XF96 analyzer.

As to `CC1(C)OC2=C(CC1O)C(=O)C(=O)c1ccccc12` (stereo not drawn) [3-hydroxy-β-lapachone, reference compound], in the experiment with MDA-MB-231 rho0 cells, the “induction of cell death in rho0 cells (cell viability)” value was “not”. Further, the “vacuolization (formation of vacuoles)” value in the experiment on A549 cells [1] is “not detected”. Moreover, the “inhibition of mitochondrial respiration (oxygen consumption) by oligomycin after treatment” value in the experiment with A549 cells [2] is “oligomycin was efficient in inhibiting the mitochondrial respiration”.
